Experimental data published in patent publication US10131652B2, “Pyrimidinyloxy benzene derivatives as herbicides” (E. I. DU PONT DE NEMOURS AND COMPANY, priority 2014, dated 2018).
Like-named read-outs stand apart in the source and are kept apart here.

How the values were obtained:
Assay in all cases: Test E pre-/postemergence plant response
Format in all cases: in vivo
[1] = tested on: bluegrass (annual bluegrass, Poa annua); conditions: scale 0 to 100, read-out: Plant response rating, Bluegrass; for pest or weed control at 16 g/ha: 16 g ai/ha; for pest or weed control at 31 g/ha: 31 g ai/ha; for pest or weed control at 62 g/ha: 62 g ai/ha; for pest or weed control at 125 g/ha: 125 g ai/ha
In short: (§1)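 Visual scores on a 0–100 scale (100 = complete control) were assigned against untreated controls 7–21 days after treatment in a controlled environment. Compounds, formulated with solvent plus surfactant, were applied to pre-emergence silt-loam sowings or to 1- to 4-leaf plants (2–18 cm) in potting medium.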

[2] = tested on: spring wheat (Triticum aestivum); conditions: scale 0 to 100, read-out: Plant response rating, Wheat, Spring; for plant injury at 16 g/ha: 16 g ai/ha; for plant injury at 62 g/ha: 62 g ai/ha; for plant injury at 125 g/ha: 125 g ai/ha
In short: as §1

[3] = tested on: galium (catchweed bedstraw, Galium aparine); conditions: scale 0 to 100, read-out: Plant response rating, Galium; for pest or weed control at 16 g/ha: 16 g ai/ha; for pest or weed control at 31 g/ha: 31 g ai/ha; for pest or weed control at 62 g/ha: 62 g ai/ha; for pest or weed control at 125 g/ha: 125 g ai/ha
In short: as §1

[4] = tested on: oilseed rape (Brassica napus); conditions: scale 0 to 100, read-out: Plant response rating, Oilseed Rape; for plant injury at 16 g/ha: 16 g ai/ha; for plant injury at 31 g/ha: 31 g ai/ha; for plant injury at 62 g/ha: 62 g ai/ha; for plant injury at 125 g/ha: 125 g ai/ha
In short: as §1

[5] = tested on: winter wheat (Triticum aestivum); conditions: scale 0 to 100, read-out: Plant response rating, Wheat, Winter; for plant injury at 16 g/ha: 16 g ai/ha; for plant injury at 62 g/ha: 62 g ai/ha; for plant injury at 125 g/ha: 125 g ai/ha
In short: as §1

[6] = tested on: wild radish (Raphanus raphanistrum); conditions: scale 0 to 100, read-out: Plant response rating, Radish, Wild; for pest or weed control at 16 g/ha: 16 g ai/ha; for pest or weed control at 31 g/ha: 31 g ai/ha; for pest or weed control at 62 g/ha: 62 g ai/ha; for pest or weed control at 125 g/ha: 125 g ai/ha
In short: as §1

wild oat (Avena fatua) = conditions: scale 0 to 100, read-out: Plant response rating, Oat, Wild; for pest or weed control at 16 g/ha: 16 g ai/ha; for pest or weed control at 31 g/ha: 31 g ai/ha; for pest or weed control at 62 g/ha: 62 g ai/ha; for pest or weed control at 125 g/ha: 125 g ai/ha
In short: as §1

[7] = tested on: field violet (Viola arvensis); conditions: scale 0 to 100, read-out: Plant response rating, Field Violet; for pest or weed control at 16 g/ha: 16 g ai/ha; for pest or weed control at 31 g/ha: 31 g ai/ha; for pest or weed control at 62 g/ha: 62 g ai/ha; for pest or weed control at 125 g/ha: 125 g ai/ha
In short: as §1

[8] = tested on: deadnettle (henbit deadnettle, Lamium amplexicaule); conditions: scale 0 to 100, read-out: Plant response rating, Deadnettle; for pest or weed control at 16 g/ha: 16 g ai/ha; for pest or weed control at 31 g/ha: 31 g ai/ha; for pest or weed control at 62 g/ha: 62 g ai/ha; for pest or weed control at 125 g/ha: 125 g ai/ha
In short: as §1

[9] = tested on: lambsquarters (Chenopodium album); conditions: scale 0 to 100, read-out: Plant response rating, Lambsquarters; for pest or weed control at 16 g/ha: 16 g ai/ha; for pest or weed control at 31 g/ha: 31 g ai/ha; for pest or weed control at 62 g/ha: 62 g ai/ha; for pest or weed control at 125 g/ha: 125 g ai/ha
In short: as §1

[10] = tested on: green foxtail (Setaria viridis); conditions: scale 0 to 100, read-out: Plant response rating, Foxtail, Green; for pest or weed control at 16 g/ha: 16 g ai/ha; for pest or weed control at 31 g/ha: 31 g ai/ha; for pest or weed control at 62 g/ha: 62 g ai/ha; for pest or weed control at 125 g/ha: 125 g ai/ha
In short: as §1

[11] = post-emergence, 31 g ai/ha, Postemergence

FC(F)c1cc(-c2ccccc2Oc2ncc(Br)cn2)no1 [Compound 62, 5-bromo-2-[2-[5-(difluoromethyl)-3-isoxazolyl]phenoxy]pyrimidine]
pest or weed control at 16 g/ha ([1]; post-emergence, Postemergence): 10%
pest or weed control at 31 g/ha ([1]; post-emergence, Postemergence): 35%
pest or weed control at 62 g/ha ([1]; post-emergence, Postemergence): 55%
pest or weed control at 125 g/ha ([1]; post-emergence, Postemergence): 60%
pest or weed control at 16 g/ha ([1]; pre-emergence, Preemergence): 0%
pest or weed control at 31 g/ha ([1]; pre-emergence, Preemergence): 5%
pest or weed control at 62 g/ha ([1]; pre-emergence, Preemergence): 10%
pest or weed control at 125 g/ha ([1]; pre-emergence, Preemergence): 75%
plant injury at 16 g/ha ([2]; post-emergence, Postemergence): 5%
plant injury at 31 g/ha [2, 11]: 20%
plant injury at 62 g/ha ([2]; post-emergence, Postemergence): 25%
plant injury at 125 g/ha ([2]; post-emergence, Postemergence): 40%
plant injury at 16 g/ha ([2]; pre-emergence, Preemergence): 0%
plant injury at 62 g/ha ([2]; pre-emergence, Preemergence): 0%
plant injury at 125 g/ha ([2]; pre-emergence, Preemergence): 10%
pest or weed control at 16 g/ha ([3]; post-emergence, Postemergence): 70%
pest or weed control at 31 g/ha ([3]; post-emergence, Postemergence): 70%
pest or weed control at 62 g/ha ([3]; post-emergence, Postemergence): 75%
pest or weed control at 125 g/ha ([3]; post-emergence, Postemergence): 90%
pest or weed control at 16 g/ha ([3]; pre-emergence, Preemergence): 5%
pest or weed control at 31 g/ha ([3]; pre-emergence, Preemergence): 60%
pest or weed control at 62 g/ha ([3]; pre-emergence, Preemergence): 65%
pest or weed control at 125 g/ha ([3]; pre-emergence, Preemergence): 100%
plant injury at 16 g/ha ([4]; post-emergence, Postemergence): 65%
plant injury at 31 g/ha ([4]; post-emergence, Postemergence): 80%
plant injury at 62 g/ha ([4]; post-emergence, Postemergence): 80%
plant injury at 125 g/ha ([4]; post-emergence, Postemergence): 100%
plant injury at 16 g/ha ([4]; pre-emergence, Preemergence): 10%
plant injury at 31 g/ha ([4]; pre-emergence, Preemergence): 25%
plant injury at 62 g/ha ([4]; pre-emergence, Preemergence): 65%
plant injury at 125 g/ha ([4]; pre-emergence, Preemergence): 100%
plant injury at 16 g/ha ([5]; post-emergence, Postemergence): 10%
plant injury at 31 g/ha [5, 11]: 20%
plant injury at 62 g/ha ([5]; post-emergence, Postemergence): 30%
plant injury at 125 g/ha ([5]; post-emergence, Postemergence): 35%
plant injury at 16 g/ha ([5]; pre-emergence, Preemergence): 0%
plant injury at 62 g/ha ([5]; pre-emergence, Preemergence): 0%
plant injury at 125 g/ha ([5]; pre-emergence, Preemergence): 5%
pest or weed control at 16 g/ha ([6]; post-emergence, Postemergence): 65%
pest or weed control at 31 g/ha ([6]; post-emergence, Postemergence): 70%
pest or weed control at 62 g/ha ([6]; post-emergence, Postemergence): 90%
pest or weed control at 125 g/ha ([6]; post-emergence, Postemergence): 100%
pest or weed control at 16 g/ha ([6]; pre-emergence, Preemergence): 25%
pest or weed control at 31 g/ha ([6]; pre-emergence, Preemergence): 40%
pest or weed control at 62 g/ha ([6]; pre-emergence, Preemergence): 95%
pest or weed control at 125 g/ha ([6]; pre-emergence, Preemergence): 100%
pest or weed control at 16 g/ha (wild oat (Avena fatua); post-emergence, Postemergence): 15%
pest or weed control at 31 g/ha (wild oat (Avena fatua); post-emergence, Postemergence): 25%
pest or weed control at 62 g/ha (wild oat (Avena fatua); post-emergence, Postemergence): 35%
pest or weed control at 125 g/ha (wild oat (Avena fatua); post-emergence, Postemergence): 60%
pest or weed control at 16 g/ha (wild oat (Avena fatua); pre-emergence, Preemergence): 0%
pest or weed control at 31 g/ha (wild oat (Avena fatua); pre-emergence, Preemergence): 10%
pest or weed control at 62 g/ha (wild oat (Avena fatua); pre-emergence, Preemergence): 15%
pest or weed control at 125 g/ha (wild oat (Avena fatua); pre-emergence, Preemergence): 20%
pest or weed control at 16 g/ha ([7]; post-emergence, Postemergence): 60%
pest or weed control at 31 g/ha ([7]; post-emergence, Postemergence): 65%
pest or weed control at 62 g/ha ([7]; post-emergence, Postemergence): 70%
pest or weed control at 125 g/ha ([7]; post-emergence, Postemergence): 85%
pest or weed control at 16 g/ha ([7]; pre-emergence, Preemergence): 0%
pest or weed control at 31 g/ha ([7]; pre-emergence, Preemergence): 10%
pest or weed control at 62 g/ha ([7]; pre-emergence, Preemergence): 35%
pest or weed control at 125 g/ha ([7]; pre-emergence, Preemergence): 100%
pest or weed control at 16 g/ha ([8]; post-emergence, Postemergence): 35%
pest or weed control at 31 g/ha ([8]; post-emergence, Postemergence): 35%
pest or weed control at 62 g/ha ([8]; post-emergence, Postemergence): 65%
pest or weed control at 125 g/ha ([8]; post-emergence, Postemergence): 70%
pest or weed control at 16 g/ha ([8]; pre-emergence, Preemergence): 15%
pest or weed control at 31 g/ha ([8]; pre-emergence, Preemergence): 20%
pest or weed control at 62 g/ha ([8]; pre-emergence, Preemergence): 40%
pest or weed control at 125 g/ha ([8]; pre-emergence, Preemergence): 100%
pest or weed control at 16 g/ha ([9]; post-emergence, Postemergence): 75%
pest or weed control at 31 g/ha ([9]; post-emergence, Postemergence): 95%
pest or weed control at 62 g/ha ([9]; post-emergence, Postemergence): 95%
pest or weed control at 125 g/ha ([9]; post-emergence, Postemergence): 95%
pest or weed control at 16 g/ha ([9]; pre-emergence, Preemergence): 35%
pest or weed control at 31 g/ha ([9]; pre-emergence, Preemergence): 85%
pest or weed control at 62 g/ha ([9]; pre-emergence, Preemergence): 95%
pest or weed control at 125 g/ha ([9]; pre-emergence, Preemergence): 100%
pest or weed control at 16 g/ha ([10]; post-emergence, Postemergence): 15%
pest or weed control at 31 g/ha ([10]; post-emergence, Postemergence): 20%
pest or weed control at 62 g/ha ([10]; post-emergence, Postemergence): 25%
pest or weed control at 125 g/ha ([10]; post-emergence, Postemergence): 65%
pest or weed control at 16 g/ha ([10]; pre-emergence, Preemergence): 20%
pest or weed control at 31 g/ha ([10]; pre-emergence, Preemergence): 40%
pest or weed control at 62 g/ha ([10]; pre-emergence, Preemergence): 65%
pest or weed control at 125 g/ha ([10]; pre-emergence, Preemergence): 85%
